# Measurements from patent US11447466B2, “Substituted indole compounds useful as inhibitors of TLR7/8/9” (BRISTOL-MYERS SQUIBB COMPANY, priority 2017, dated 2022).
# Tests used:
# Type in all cases: cell-based
# [1] = molecular target: T1, human TLR7 (Homo sapiens, UniProt Q9NYK1); assay: TLR7 inhibition reporter assay (HEK-Blue SEAP reporter, gardiquimod stimulation); conditions: HEK-Blue cells overexpressing human TLR7, SEAP reporter, gardiquimod 7.5 μM, 22 hour incubation
# T1 construct: host or cells: HEK-Blue cells
# T1 sequence (Q9NYK1 27-1049): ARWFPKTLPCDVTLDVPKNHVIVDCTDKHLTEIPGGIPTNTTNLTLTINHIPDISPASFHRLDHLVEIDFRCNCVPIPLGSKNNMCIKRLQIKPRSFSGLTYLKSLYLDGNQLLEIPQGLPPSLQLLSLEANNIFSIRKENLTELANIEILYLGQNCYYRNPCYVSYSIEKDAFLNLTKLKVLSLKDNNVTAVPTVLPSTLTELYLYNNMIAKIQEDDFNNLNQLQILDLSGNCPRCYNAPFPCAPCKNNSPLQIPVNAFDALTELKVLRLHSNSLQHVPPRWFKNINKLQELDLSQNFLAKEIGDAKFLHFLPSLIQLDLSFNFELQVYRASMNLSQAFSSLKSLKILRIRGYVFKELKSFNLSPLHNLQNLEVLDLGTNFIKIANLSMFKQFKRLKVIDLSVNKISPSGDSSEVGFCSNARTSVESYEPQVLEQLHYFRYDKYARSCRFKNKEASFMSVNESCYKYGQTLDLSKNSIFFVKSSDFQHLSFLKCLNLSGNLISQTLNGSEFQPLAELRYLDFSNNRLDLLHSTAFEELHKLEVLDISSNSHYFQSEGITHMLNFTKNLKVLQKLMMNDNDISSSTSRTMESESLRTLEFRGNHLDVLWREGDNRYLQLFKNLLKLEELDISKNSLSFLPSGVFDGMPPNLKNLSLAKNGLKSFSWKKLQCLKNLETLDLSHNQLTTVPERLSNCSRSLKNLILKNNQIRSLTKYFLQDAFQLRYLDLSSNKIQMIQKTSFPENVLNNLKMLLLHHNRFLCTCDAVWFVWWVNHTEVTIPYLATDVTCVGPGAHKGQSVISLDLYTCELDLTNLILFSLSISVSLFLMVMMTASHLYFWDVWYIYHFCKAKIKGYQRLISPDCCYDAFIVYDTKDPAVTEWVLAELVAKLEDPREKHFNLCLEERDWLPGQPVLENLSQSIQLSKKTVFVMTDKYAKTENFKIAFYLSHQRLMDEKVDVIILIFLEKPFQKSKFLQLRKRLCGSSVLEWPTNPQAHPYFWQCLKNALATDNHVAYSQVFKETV
# Procedure, shortened: (§1)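 Dose–response from 0.05 nM to 50 μM was run in HEK-Blue human TLR7, TLR8 and TLR9 reporter cells. After 30 min at room temperature with compound, ligand was added (TLR7 gardiquimod 7.5 μM; TLR8 R848 15.9 μM; TLR9 ODN2006 5 nM) and SEAP measured next day, at 22 h.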
# [2] = molecular target: T2, human TLR8 (Homo sapiens, UniProt Q9NR97); assay: TLR8 inhibition reporter assay (HEK-Blue SEAP reporter, R848 stimulation); conditions: HEK-Blue cells overexpressing human TLR8, SEAP reporter, R848 15.9 μM, 22 hour incubation
# T2 construct: host or cells: HEK-Blue cells
# T2 sequence (Q9NR97 27-1041): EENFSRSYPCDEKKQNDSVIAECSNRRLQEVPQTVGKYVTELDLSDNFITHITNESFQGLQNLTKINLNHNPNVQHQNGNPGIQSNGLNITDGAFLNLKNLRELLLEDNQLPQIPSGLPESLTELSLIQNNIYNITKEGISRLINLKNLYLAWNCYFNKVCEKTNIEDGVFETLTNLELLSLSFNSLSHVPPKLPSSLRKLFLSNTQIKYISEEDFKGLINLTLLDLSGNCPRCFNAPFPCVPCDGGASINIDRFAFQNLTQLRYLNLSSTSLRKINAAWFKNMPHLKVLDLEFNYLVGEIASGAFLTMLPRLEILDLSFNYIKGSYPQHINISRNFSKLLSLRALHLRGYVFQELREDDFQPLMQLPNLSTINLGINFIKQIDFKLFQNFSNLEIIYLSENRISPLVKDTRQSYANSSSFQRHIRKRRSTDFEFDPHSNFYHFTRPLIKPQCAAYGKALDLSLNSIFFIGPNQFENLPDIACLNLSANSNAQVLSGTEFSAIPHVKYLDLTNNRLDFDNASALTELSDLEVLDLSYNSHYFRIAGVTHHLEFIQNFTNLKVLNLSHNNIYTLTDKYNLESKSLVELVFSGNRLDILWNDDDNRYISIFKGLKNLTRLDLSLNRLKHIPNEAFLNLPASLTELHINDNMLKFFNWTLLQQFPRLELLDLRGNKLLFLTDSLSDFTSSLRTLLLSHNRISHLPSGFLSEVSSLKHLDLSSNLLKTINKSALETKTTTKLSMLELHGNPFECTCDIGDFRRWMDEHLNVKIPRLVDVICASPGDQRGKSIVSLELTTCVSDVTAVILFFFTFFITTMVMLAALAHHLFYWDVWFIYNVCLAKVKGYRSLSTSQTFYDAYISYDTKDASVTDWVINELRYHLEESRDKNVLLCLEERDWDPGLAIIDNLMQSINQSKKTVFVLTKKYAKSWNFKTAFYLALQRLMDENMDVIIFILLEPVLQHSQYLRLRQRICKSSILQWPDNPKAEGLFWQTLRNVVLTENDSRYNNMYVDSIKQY
# Procedure, shortened: as §1
# [3] = molecular target: T3, human TLR9 (Homo sapiens, UniProt Q9NR96); assay: TLR9 inhibition reporter assay (HEK-Blue SEAP reporter, ODN2006 stimulation); conditions: HEK-Blue cells overexpressing human TLR9, SEAP reporter, ODN2006 5 nM, 22 hour incubation
# T3 construct: host or cells: HEK-Blue cells
# T3 sequence (Q9NR96 26-1032): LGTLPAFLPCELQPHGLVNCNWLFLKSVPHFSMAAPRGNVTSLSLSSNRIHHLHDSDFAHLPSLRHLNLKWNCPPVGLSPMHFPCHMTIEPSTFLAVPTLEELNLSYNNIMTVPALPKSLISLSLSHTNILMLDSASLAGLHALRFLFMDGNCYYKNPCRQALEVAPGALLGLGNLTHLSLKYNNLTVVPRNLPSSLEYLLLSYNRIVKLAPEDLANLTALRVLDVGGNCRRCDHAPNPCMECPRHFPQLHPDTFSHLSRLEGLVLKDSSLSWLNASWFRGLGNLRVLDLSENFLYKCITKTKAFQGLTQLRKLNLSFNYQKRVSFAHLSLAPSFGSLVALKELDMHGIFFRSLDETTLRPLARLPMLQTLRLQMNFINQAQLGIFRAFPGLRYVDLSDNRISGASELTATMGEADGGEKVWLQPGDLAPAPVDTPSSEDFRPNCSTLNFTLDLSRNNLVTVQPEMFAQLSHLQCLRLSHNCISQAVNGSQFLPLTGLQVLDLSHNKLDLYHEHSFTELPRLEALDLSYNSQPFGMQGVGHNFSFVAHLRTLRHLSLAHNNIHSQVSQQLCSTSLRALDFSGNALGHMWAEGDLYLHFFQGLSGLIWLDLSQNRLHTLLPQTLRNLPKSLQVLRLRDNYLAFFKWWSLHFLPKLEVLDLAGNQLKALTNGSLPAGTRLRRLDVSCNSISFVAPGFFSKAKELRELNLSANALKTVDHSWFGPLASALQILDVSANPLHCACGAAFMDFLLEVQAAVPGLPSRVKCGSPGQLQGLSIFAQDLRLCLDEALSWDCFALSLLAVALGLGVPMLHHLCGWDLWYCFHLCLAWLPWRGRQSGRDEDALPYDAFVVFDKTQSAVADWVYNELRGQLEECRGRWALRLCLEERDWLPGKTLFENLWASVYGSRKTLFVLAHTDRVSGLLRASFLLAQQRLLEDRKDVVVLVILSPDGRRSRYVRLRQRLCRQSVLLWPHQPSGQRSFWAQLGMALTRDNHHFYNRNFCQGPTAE
# Procedure, shortened: as §1
IC50 [1] [nM],IC50 [2] [nM],IC50 [3] [nM],Compound
112,75.5,6730,"Cc1nc(-c2[nH]c3ccc(C4CCN(C5COC5)CC4)cc3c2C(C)C)cn(C)c1=O [Example 186, 5-(3-isopropyl-5-(1-(oxetan-3-yl)piperidin-4-yl)-1H-indol-2-yl)-1,3-dimethylpyrazin-2(1H)-one]"
85.4,30.1,655,"Cc1nc(-c2[nH]c3ccc(C4CCN(C5CCCOC5)CC4)cc3c2C(C)C)cn(C)c1=O (stereo not drawn) [Example 187, 5-(3-isopropyl-5-(1-(tetrahydro-2H-pyran-3-yl)piperidin-4-yl)-1H-indol-2-yl)-1,3-dimethylpyrazin-2(1H)-one]"
14.1,11.1,526,"Cc1cc(-c2[nH]c3ccc(C4CCN(C5CCCOC5)CC4)cc3c2C(C)C)nn(C)c1=O (stereo not drawn) [Example 188, 6-(3-isopropyl-5-(1-(tetrahydro-2H-pyran-3-yl)piperidin-4-yl)-1H-indol-2-yl)-2,4-dimethylpyridazin-3(2H)-one]"
25.6,53.8,2260,"Cc1nc(-c2[nH]c3ccc(C4CCN(C5CCOC5)CC4)cc3c2C(C)C)cn(C)c1=O (stereo not drawn) [Example 190, 5-(3-isopropyl-5-(1-(tetrahydrofuran-3-yl)piperidin-4-yl)-1H-indol-2-yl)-1,3-dimethylpyrazin-2(1H)-one]"
12.6,11.7,8920,"Cc1cc(-c2[nH]c3ccc(C4CCN(C5CCOC5)CC4)cc3c2C(C)C)nn(C)c1=O (stereo not drawn) [Example 193, 6-(3-isopropyl-5-(1-(tetrahydrofuran-3-yl)piperidin-4-yl)-1H-indol-2-yl)-2,4-dimethylpyridazin-3(2H)-one]"

# The next lines start with the molecule.
Compound,IC50 [1] [nM],IC50 [2] [nM],IC50 [3] [nM]
"Cc1cc(-c2[nH]c3ccc(C4CCN(C5COC5)CC4)cc3c2C(C)C)nn(C)c1=O [Example 189, 6-(3-isopropyl-5-(1-(oxetan-3-yl)piperidin-4-yl)-1H-indol-2-yl)-2,4-dimethylpyridazin-3(2H)-one]",25.5,25,47800
"Cc1cc(-c2[nH]c3ccc(C4CCN(C)CC4)cc3c2C(C)C)nn(C)c1=O [Example 191, 6-(3-isopropyl-5-(1-methylpiperidin-4-yl)-1H-indol-2-yl)-2,4-dimethylpyridazin-3(2H)-one]",6.9,21.5,8840
"Cc1cc(-c2[nH]c3ccc(C4CCN(C(C)C)CC4)cc3c2C(C)C)nn(C)c1=O [Example 192, 6-(3-isopropyl-5-(1-isopropylpiperidin-4-yl)-1H-indol-2-yl)-2,4-dimethylpyridazin-3(2H)-one]",6.4,12,2820
"Cc1cc(-c2[nH]c3ccc(C4CCN(C5CCOCC5)CC4)cc3c2C(C)C)nn(C)c1=O [Example 194, 6-(3-isopropyl-5-(1-(tetrahydro-2H-pyran-4-yl)piperidin-4-yl)-1H-indol-2-yl)-2,4-dimethylpyridazin-3(2H)-one]",10.2,6.3,2980
"Cc1cc(-c2[nH]c3ccc(C4CCN(Cc5ccn(C)n5)CC4)cc3c2C(C)C)cn(C)c1=O [Example 195, 5-(3-isopropyl-5-(1-((1-methyl-1H-pyrazol-3-yl)methyl)piperidin-4-yl)-1H-indol-2-yl)-1,3-dimethylpyridin-2(1H)-one]",3.9,2.6,5190
"Cc1cc(-c2[nH]c3ccc(C4CCN(Cc5cnn(C)c5)CC4)cc3c2C(C)C)cn(C)c1=O [Example 196, 5-(3-isopropyl-5-(1-((1-methyl-1H-pyrazol-4-yl)methyl)piperidin-4-yl)-1H-indol-2-yl)-1,3-dimethylpyridin-2(1H)-one]",3,2.4,4980
"Cc1cc(-c2[nH]c3ccc(C4CCN(Cc5ccnn5C)CC4)cc3c2C(C)C)cn(C)c1=O [Example 197, 5-(3-isopropyl-5-(1-((1-methyl-1H-pyrazol-5-yl)methyl)piperidin-4-yl)-1H-indol-2-yl)-1,3-dimethylpyridin-2(1H)-one]",4.6,2.4,8340
"Cc1cc(-c2[nH]c3ccc(C4CCN(Cc5ncnn5C)CC4)cc3c2C(C)C)cn(C)c1=O [Example 198, 5-(3-isopropyl-5-(1-((1-methyl-1H-1,2,4-triazol-5-yl)methyl)piperidin-4-yl)-1H-indol-2-yl)-1,3-dimethylpyridin-2(1H)-one]",9.1,13.4,≥ 50000
"Cc1cc(-c2[nH]c3ccc(C4CCN(C5CCC(F)(F)CC5)CC4)cc3c2C(C)C)cn(C)c1=O [Example 199, 5-(5-(1-(4,4-difluorocyclohexyl)piperidin-4-yl)-3-isopropyl-1H-indol-2-yl)-1,3-dimethylpyridin-2(1H)-one]",1.9,4.2,1550
